Results taken from ChEMBL document CHEMBL3867484, “3D-QSAR studies of 3-(3,4-dihydroisoquinolin-2(1H)-ylsulfonyl)benzoic acids as AKR1C3 inhibitors: Highlight the importance of molecular docking in conformation generation” (Bioorg Med Chem Lett, 2016).

The compounds below were run against T1, Aldo-keto reductase family 1 member C3 (Homo sapiens, UniProt P42330) (assay: Inhibition of human recombinant His-tagged AKR1C3 expressed in Escherichia coli BL21 (DE3) cells using 8-Acetyl-2,3,5,6-tetrahydro-1H,4H-11-oxa-3a-aza-benzo[de]anthracen-10-one as substrate after 1 hr in presence of NADPH by fluorescence assay). Conditions: read-out: IC50.
T1 sequence (P42330 whole entry): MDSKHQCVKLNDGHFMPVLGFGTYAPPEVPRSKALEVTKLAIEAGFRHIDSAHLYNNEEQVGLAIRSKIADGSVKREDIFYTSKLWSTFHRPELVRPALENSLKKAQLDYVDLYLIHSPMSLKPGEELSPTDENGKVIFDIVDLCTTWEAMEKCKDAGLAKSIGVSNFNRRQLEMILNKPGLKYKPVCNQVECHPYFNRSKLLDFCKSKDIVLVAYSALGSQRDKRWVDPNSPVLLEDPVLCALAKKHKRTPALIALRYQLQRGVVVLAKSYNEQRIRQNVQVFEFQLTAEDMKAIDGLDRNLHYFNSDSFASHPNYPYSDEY

IC50	Structure (SMILES)
0.39 µM	O=C(O)c1cccc(S(=O)(=O)C2CC=CCC2)c1 (stereo not drawn)
0.078 µM	O=C(NN1CCOCC1)c1cccc(S(=O)(=O)N2CCc3ccccc3C2)c1
1.31 µM	O=C(O)c1cccc(S(=O)(=O)N2CCc3ccc(C#Cc4ccc(C(F)(F)F)cc4)cc3C2)c1
0.025 µM	O=C(O)c1cccc(S(=O)(=O)C2CCc3sccc3C2)c1 (stereo not drawn)
0.042 µM	CN1CC(c2ccc(S(=O)(=O)N3CCc4ccccc4C3)cc2)CC1=O (stereo not drawn)
0.45 µM	O=C(NN1CCSCC1)c1cccc(S(=O)(=O)N2CCc3ccccc3C2)c1

Same assay, conditions: read-out: pIC50 (converted)

IC50	Structure (SMILES)
0.0316 µM	O=C(O)[C@@H]1CCCN(S(=O)(=O)c2ccc3ccccc3c2)C1
0.00603 µM	O=C(O)c1cccc(S(=O)(=O)N2CCc3cc(Br)ccc3C2)c1
